Laboratory results as given in patent US20260356819A1, “OXOISOINDOLINYL-SUBSTITUTED […] DERIVATIVE AND USE THEREOF” (GLUETACS THERAPEUTICS (SHANGHAI) CO., LTD., priority 2023, published 2026).

Assays:
GSPT1 = biological target: T1, GSPT1 (Homo sapiens, UniProt P15170+Q96SW2); test: Western blot degradation of GSPT1 in hPBMCs (24 h); assay type: cell-based; conditions: compounds at 50 nM and 500 nM
T1 construct: The supernatant was aspirated as the extracted total cell protein; endogenous in cells; host or cells: human peripheral blood mononuclear cells (hPBMCs)
T1 sequence (P15170 whole entry): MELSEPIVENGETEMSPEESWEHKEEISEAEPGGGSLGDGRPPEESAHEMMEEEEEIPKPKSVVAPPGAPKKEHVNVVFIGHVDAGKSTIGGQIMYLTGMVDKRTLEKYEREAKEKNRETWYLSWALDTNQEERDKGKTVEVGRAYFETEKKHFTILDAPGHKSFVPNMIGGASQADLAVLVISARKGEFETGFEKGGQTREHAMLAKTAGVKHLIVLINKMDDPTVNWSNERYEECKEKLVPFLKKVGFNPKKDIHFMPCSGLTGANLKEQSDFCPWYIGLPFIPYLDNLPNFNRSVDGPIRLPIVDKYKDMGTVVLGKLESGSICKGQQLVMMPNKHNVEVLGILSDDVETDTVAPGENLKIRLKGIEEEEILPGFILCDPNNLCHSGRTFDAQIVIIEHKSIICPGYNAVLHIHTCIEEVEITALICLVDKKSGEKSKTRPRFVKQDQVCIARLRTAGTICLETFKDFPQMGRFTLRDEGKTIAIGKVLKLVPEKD
T1 sequence (Q96SW2 whole entry): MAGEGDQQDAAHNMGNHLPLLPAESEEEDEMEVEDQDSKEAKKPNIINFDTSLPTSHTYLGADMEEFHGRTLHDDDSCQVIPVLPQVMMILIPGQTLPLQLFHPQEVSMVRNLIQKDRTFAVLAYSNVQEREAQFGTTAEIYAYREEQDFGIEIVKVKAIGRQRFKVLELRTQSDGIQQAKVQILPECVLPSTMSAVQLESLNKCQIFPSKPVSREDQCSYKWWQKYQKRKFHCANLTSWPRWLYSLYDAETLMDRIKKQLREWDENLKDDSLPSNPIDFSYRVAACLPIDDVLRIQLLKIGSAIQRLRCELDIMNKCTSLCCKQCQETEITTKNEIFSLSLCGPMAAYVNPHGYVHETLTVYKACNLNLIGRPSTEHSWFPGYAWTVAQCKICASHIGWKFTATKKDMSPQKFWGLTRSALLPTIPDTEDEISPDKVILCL
T1 sequence (Q16531 whole entry partner): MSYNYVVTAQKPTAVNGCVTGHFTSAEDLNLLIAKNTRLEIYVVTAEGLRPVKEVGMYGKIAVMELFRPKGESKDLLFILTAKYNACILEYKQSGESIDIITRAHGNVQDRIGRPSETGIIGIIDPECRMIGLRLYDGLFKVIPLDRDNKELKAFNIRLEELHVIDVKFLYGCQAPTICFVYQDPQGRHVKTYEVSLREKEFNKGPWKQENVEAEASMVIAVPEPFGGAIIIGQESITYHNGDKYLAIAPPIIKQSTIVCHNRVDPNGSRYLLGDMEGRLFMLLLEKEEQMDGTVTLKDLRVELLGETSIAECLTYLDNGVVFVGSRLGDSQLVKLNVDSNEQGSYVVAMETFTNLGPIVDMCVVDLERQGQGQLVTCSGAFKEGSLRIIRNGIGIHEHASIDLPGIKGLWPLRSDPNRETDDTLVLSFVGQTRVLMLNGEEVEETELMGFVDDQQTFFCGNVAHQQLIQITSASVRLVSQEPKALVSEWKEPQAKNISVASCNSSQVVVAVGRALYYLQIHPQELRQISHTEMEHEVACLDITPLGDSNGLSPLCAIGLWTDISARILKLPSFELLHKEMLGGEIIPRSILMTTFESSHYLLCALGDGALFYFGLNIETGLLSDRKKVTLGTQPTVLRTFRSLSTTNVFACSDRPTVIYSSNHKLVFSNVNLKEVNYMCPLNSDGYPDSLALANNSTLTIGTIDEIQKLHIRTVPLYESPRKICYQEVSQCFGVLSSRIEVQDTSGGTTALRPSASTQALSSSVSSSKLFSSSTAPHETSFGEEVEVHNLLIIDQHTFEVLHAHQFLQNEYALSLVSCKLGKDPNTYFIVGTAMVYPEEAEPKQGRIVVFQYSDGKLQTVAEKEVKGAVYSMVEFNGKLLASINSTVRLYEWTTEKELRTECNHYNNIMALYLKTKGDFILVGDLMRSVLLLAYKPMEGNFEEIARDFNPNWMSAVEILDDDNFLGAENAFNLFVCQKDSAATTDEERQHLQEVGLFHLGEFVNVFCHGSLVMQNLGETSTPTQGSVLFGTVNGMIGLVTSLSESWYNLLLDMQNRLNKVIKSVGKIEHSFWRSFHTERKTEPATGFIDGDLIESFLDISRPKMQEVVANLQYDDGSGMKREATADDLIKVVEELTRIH
How it was run: (§1)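 Immunoblot densitometry quantifies target loss in hPBMCs after a 24 h compound exposure (50 nM, 500 nM). Percent remaining is normalised band intensity; DC50 is the concentration giving half the DMSO-control band grayscale.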

IKZF1 = biological target: T2, IKZF1 (Homo sapiens, UniProt Q13422+Q96SW2); test: Western blot degradation of IKZF1 in hPBMCs (24 h); assay type: cell-based; conditions: compounds at 50 nM and 500 nM
T2 construct: The supernatant was aspirated as the extracted total cell protein; endogenous in cells; host or cells: human peripheral blood mononuclear cells (hPBMCs)
T2 sequence (Q13422 whole entry): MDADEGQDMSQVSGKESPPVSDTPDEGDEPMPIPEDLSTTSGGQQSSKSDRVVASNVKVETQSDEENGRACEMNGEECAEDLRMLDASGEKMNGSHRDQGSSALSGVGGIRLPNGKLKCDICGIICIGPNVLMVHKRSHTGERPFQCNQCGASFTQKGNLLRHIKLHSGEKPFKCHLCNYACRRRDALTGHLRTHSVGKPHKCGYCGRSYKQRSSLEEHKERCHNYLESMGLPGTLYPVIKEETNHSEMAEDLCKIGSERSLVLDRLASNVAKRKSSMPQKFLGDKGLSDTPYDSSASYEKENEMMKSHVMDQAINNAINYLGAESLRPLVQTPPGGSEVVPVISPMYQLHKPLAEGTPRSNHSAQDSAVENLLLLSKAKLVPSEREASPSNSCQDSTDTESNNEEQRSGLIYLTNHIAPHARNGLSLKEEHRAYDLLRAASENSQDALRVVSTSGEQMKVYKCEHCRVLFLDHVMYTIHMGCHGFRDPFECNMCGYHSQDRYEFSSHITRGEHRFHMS
T2 sequence (Q96SW2 whole entry): as the sequence (Q96SW2 whole entry) above
T2 sequence (Q16531 whole entry partner): as the sequence (Q16531 whole entry partner) above
How it was run: as §1

WEE1 = biological target: T3, WEE1 (Homo sapiens, UniProt P30291+Q96SW2); test: Western blot degradation of WEE1 in hPBMCs (24 h); assay type: cell-based; conditions: compounds at 50 nM and 500 nM
T3 construct: The supernatant was aspirated as the extracted total cell protein; endogenous in cells; host or cells: human peripheral blood mononuclear cells (hPBMCs)
How it was run: as §1

IKZF3 = biological target: T4, IKZF3 (Homo sapiens, UniProt Q96SW2+Q9UKT9); test: Western blot degradation of IKZF3 in hPBMCs (24 h); assay type: cell-based; conditions: compounds at 50 nM and 500 nM
T4 construct: The supernatant was aspirated as the extracted total cell protein; endogenous in cells; host or cells: human peripheral blood mononuclear cells (hPBMCs)
T4 sequence (Q9UKT9 whole entry): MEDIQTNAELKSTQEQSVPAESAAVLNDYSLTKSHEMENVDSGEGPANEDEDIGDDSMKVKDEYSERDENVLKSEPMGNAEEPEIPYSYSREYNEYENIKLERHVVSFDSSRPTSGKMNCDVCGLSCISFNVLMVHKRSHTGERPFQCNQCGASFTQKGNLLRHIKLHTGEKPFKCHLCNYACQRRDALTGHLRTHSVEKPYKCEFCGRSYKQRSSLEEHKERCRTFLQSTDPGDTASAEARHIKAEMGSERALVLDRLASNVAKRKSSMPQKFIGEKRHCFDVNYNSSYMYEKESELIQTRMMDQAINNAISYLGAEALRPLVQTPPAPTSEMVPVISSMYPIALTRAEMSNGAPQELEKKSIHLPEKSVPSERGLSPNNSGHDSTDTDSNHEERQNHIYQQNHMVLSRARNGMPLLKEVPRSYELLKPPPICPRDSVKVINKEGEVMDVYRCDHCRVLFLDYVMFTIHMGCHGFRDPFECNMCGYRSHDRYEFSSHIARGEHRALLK
T4 sequence (Q96SW2 whole entry): as the sequence (Q96SW2 whole entry) above
T4 sequence (Q16531 whole entry partner): as the sequence (Q16531 whole entry partner) above
How it was run: as §1

CK1α = biological target: T5, CK1α (Homo sapiens, UniProt P48729+Q96SW2); test: Western blot degradation of CK1α in hPBMCs (24 h); assay type: cell-based; conditions: compounds at 50 nM and 500 nM
T5 construct: The supernatant was aspirated as the extracted total cell protein; endogenous in cells; host or cells: human peripheral blood mononuclear cells (hPBMCs)
T5 sequence (P48729 whole entry): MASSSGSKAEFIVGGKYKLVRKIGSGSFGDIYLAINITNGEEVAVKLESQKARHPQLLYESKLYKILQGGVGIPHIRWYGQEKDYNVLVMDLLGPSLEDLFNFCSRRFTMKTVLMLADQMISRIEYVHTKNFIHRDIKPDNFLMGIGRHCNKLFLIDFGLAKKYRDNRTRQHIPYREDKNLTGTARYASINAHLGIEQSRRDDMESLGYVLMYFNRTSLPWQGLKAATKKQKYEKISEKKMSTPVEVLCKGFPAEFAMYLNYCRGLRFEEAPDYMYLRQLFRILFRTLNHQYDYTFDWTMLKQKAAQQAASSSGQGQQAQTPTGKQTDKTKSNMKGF
T5 sequence (Q96SW2 whole entry): as the sequence (Q96SW2 whole entry) above
T5 sequence (Q16531 whole entry partner): as the sequence (Q16531 whole entry partner) above
How it was run: as §1

MV-4-11 cells = test: Inhibition of proliferation of myeloid monocytic leukemia cells MV-4-11 (cell viability assay, 96 h); assay type: cell-based, human; conditions: read-out: inhibitory activity (IC50) against tumor cells proliferation, MV-4-11
Method: (§2) The tumor cells used herein were cultured in a cell culture medium listed in table 2 at 37 °C in an incubator with 5% CO2. Prior to experimentation, all cell lines used were correctly identified by STR profiling, and tested negative for Mycoplasma contamination using a Mycoplasma detection kit through routine screenings.
(§3) The IC50 values of the compounds of the present disclosure (including the compounds in Table 1, and Examples 1-498) were determined using the CellTiter-Meiluncell Luminescent Cell Viability Assay Kit from Dalian Meilun Biotech Co., Ltd. The detailed procedure is as follows: Tumor cells were seeded in 96-well cell culture plates at the densities specified in Table 3. On the following day, the test compounds of the present disclosure were subjected to serial dilution. […] Subsequently, 0.5 μL of the test compound dilution was transferred into the 96-well plate containing the cells, with each well containing 100 μL of cell culture medium. […] Into the 96-well plate, the diluted test compounds and corresponding detection reagents were added, resulting in final test compound concentrations of 500 nM and 10 nM, respectively. The experimental procedure is described below using the diluted 2 μM test compound as an example.
(§4) 0.5 μL of the aforementioned diluted compound of the present disclosure (including the compounds in Table 1, and Examples 1-498) was added to the seeded cells in 100 μL of medium, yielding a final test compound concentration of 10 nM. After the cells were treated with the compounds of the present disclosure for a specified period, the cell viability assay reagent was added to the culture medium according to the kit's instructions to determine cell viability. […] All controls were treated using the same procedure as the compounds of the present disclosure. The growth inhibition curves for the compounds of the present disclosure were plotted using Prism GraphPad software, and the IC50 values were calculated therefrom.

IKZF2 = biological target: T6, IKZF2 (Homo sapiens, UniProt Q96SW2+Q9UKS7); test: Western blot degradation of IKZF2 in hPBMCs (24 h); assay type: cell-based; conditions: compounds at 50 nM and 500 nM
T6 construct: The supernatant was aspirated as the extracted total cell protein; endogenous in cells; host or cells: human peripheral blood mononuclear cells (hPBMCs)
T6 sequence (Q9UKS7 whole entry): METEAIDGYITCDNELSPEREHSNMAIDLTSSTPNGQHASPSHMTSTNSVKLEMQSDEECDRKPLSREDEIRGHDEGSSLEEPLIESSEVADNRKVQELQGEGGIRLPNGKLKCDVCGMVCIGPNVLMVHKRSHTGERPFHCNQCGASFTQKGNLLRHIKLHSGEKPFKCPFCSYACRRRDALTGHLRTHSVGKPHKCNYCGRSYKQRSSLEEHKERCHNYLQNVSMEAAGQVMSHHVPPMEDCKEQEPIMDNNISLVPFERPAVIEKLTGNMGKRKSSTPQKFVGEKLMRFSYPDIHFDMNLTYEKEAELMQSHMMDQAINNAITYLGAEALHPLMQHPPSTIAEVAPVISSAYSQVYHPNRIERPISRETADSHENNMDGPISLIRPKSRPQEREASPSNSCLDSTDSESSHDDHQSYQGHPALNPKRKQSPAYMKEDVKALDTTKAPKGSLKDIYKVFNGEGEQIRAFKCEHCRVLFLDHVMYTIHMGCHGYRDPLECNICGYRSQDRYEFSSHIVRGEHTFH
T6 sequence (Q96SW2 whole entry): as the sequence (Q96SW2 whole entry) above
T6 sequence (Q16531 whole entry partner): as the sequence (Q16531 whole entry partner) above
How it was run: as §1

Jurkat cells = test: Inhibition of proliferation of T lymphocytic leukemia cells Jurkat (cell viability assay, 96 h); assay type: cell-based, human; conditions: read-out: inhibitory activity (IC50) against tumor cells proliferation, Jurkat
Method: as §2, §3, §4

Compound	GSPT1 substrate protein remaining % (GSPT1)	IKZF1 substrate protein remaining % (IKZF1)	WEE1 substrate protein remaining % (WEE1)	IKZF3 substrate protein remaining % (IKZF3)	CK1α substrate protein remaining % (CK1α)	IC50 (MV-4-11 cells) [nM]	IKZF2 substrate protein remaining % (IKZF2)	IC50 (Jurkat cells) [nM]
O=C1CCN(N2Cc3cc(CN4CCN(c5ccccc5Cl)CC4)ccc3C2=O)C(=O)N1 [GT-06703, 1-(5-((4-(2-chlorophenyl)piperazin-1-yl)methyl)-1-oxoisoindolin-2-yl)dihydropyrimidine-2,4(1H,3H)-dione]	A (0% ≤ substrate protein remaining % ≤80%)	B (80%< substrate protein remaining % ≤100%)	B (80%< substrate protein remaining % ≤100%)	B (80%< substrate protein remaining % ≤100%)	A (0% ≤ substrate protein remaining % ≤80%)	500 to 1000	B (80%< substrate protein remaining % ≤100%)	–
O=C1CCN(N2Cc3cc(CN4CCN(c5ccc(Cl)cc5)CC4)ccc3C2=O)C(=O)N1 [GT-06765, 1-(5-((4-(4-chlorophenyl)piperazin-1-yl)methyl)-1-oxoisoindolin-2-yl)dihydropyrimidine-2,4(1H,3H)-dione]	B (80%< substrate protein remaining % ≤100%)	B (80%< substrate protein remaining % ≤100%)	B (80%< substrate protein remaining % ≤100%)	B (80%< substrate protein remaining % ≤100%)	A (0% ≤ substrate protein remaining % ≤80%)	500 to 1000	B (80%< substrate protein remaining % ≤100%)	–
O=C1CCN(N2Cc3cc(CN4CCN(c5ccccc5Br)CC4)ccc3C2=O)C(=O)N1 [GT-06766, 1-(5-((4-(2-bromophenyl)piperazin-1-yl)methyl)-1-oxoisoindolin-2-yl)dihydropyrimidine-2,4(1H,3H)-dione]	A (0% ≤ substrate protein remaining % ≤80%)	A (0% ≤ substrate protein remaining % ≤80%)	A (0% ≤ substrate protein remaining % ≤80%)	A (0% ≤ substrate protein remaining % ≤80%)	A (0% ≤ substrate protein remaining % ≤80%)	500 to 1000	A (0% ≤ substrate protein remaining % ≤80%)	–
Cc1cccc(N2CCN(Cc3ccc4c(c3)CN(N3CCC(=O)NC3=O)C4=O)CC2)c1 [GT-06770, 1-(1-oxo-5-((4-(m-tolyl)piperazin-1-yl)methyl)isoindolin-2-yl)dihydropyrimidine-2,4(1H,3H)-dione]	A (0% ≤ substrate protein remaining % ≤80%)	A (0% ≤ substrate protein remaining % ≤80%)	A (0% ≤ substrate protein remaining % ≤80%)	A (0% ≤ substrate protein remaining % ≤80%)	A (0% ≤ substrate protein remaining % ≤80%)	500 to 1000	A (0% ≤ substrate protein remaining % ≤80%)	500 to 1000
O=C1CCN(N2Cc3cc(CN4CCN(c5cc(Cl)ccc5Cl)CC4)ccc3C2=O)C(=O)N1 [GT-06773, 1-(5-((4-(2,5-dichlorophenyl)piperazin-1-yl)methyl)-1-oxoisoindolin-2-yl)dihydropyrimidine-2,4(1H,3H)-dione]	A (0% ≤ substrate protein remaining % ≤80%)	B (80%< substrate protein remaining % ≤100%)	A (0% ≤ substrate protein remaining % ≤80%)	A (0% ≤ substrate protein remaining % ≤80%)	A (0% ≤ substrate protein remaining % ≤80%)	100 to 300	A (0% ≤ substrate protein remaining % ≤80%)	–
O=C1CCN(N2Cc3cc(CN4CCN(c5cc(Cl)cc(Cl)c5)CC4)ccc3C2=O)C(=O)N1 [GT-06776, 1-(5-((4-(3,5-dichlorophenyl)piperazin-1-yl)methyl)-1-oxoisoindolin-2-yl)dihydropyrimidine-2,4(1H,3H)-dione]	A (0% ≤ substrate protein remaining % ≤80%)	B (80%< substrate protein remaining % ≤100%)	A (0% ≤ substrate protein remaining % ≤80%)	B (80%< substrate protein remaining % ≤100%)	A (0% ≤ substrate protein remaining % ≤80%)	100 to 300	A (0% ≤ substrate protein remaining % ≤80%)	500 to 1000
O=C1CCN(N2Cc3cc(CN4CCN(c5cccc(F)c5F)CC4)ccc3C2=O)C(=O)N1 [GT-06777, 1-(5-((4-(2,3-difluorophenyl)piperazin-1-yl)methyl)-1-oxoisoindolin-2-yl)dihydropyrimidine-2,4(1H,3H)-dione]	A (0% ≤ substrate protein remaining % ≤80%)	B (80%< substrate protein remaining % ≤100%)	A (0% ≤ substrate protein remaining % ≤80%)	B (80%< substrate protein remaining % ≤100%)	A (0% ≤ substrate protein remaining % ≤80%)	300 to 500	A (0% ≤ substrate protein remaining % ≤80%)	–
O=C1CCN(N2Cc3cc(CN4CCC(c5ccccc5)CC4)ccc3C2=O)C(=O)N1 [GT-06884, 1-(1-oxo-5-((4-phenylpiperidin-1-yl)methyl)isoindolin-2-yl)dihydropyrimidine-2,4(1H,3H)-dione]	A (0% ≤ substrate protein remaining % ≤80%)	B (80%< substrate protein remaining % ≤100%)	B (80%< substrate protein remaining % ≤100%)	B (80%< substrate protein remaining % ≤100%)	B (80%< substrate protein remaining % ≤100%)	500 to 1000	B (80%< substrate protein remaining % ≤100%)	–
O=C1CCN(N2Cc3cc(CN4CCC(c5cccc(Br)c5)CC4)ccc3C2=O)C(=O)N1 [GT-06885, 1-(5-((4-(3-bromophenyl)piperidin-1-yl)methyl)-1-oxoisoindolin-2-yl)dihydropyrimidine-2,4(1H,3H)-dione]	A (0% ≤ substrate protein remaining % ≤80%)	A (0% ≤ substrate protein remaining % ≤80%)	B (80%< substrate protein remaining % ≤100%)	B (80%< substrate protein remaining % ≤100%)	B (80%< substrate protein remaining % ≤100%)	100 to 300	A (0% ≤ substrate protein remaining % ≤80%)	–
O=C1CCN(N2Cc3cc(CN4CCC(c5cccc(C(F)(F)F)c5)CC4)ccc3C2=O)C(=O)N1 [GT-06892, 1-(1-oxo-5-((4-(3-(trifluoromethyl)phenyl)piperidin-1-yl)methyl)isoindolin-2-yl)dihydropyrimidine-2,4(1H,3H)-dione]	A (0% ≤ substrate protein remaining % ≤80%)	A (0% ≤ substrate protein remaining % ≤80%)	B (80%< substrate protein remaining % ≤100%)	B (80%< substrate protein remaining % ≤100%)	B (80%< substrate protein remaining % ≤100%)	500 to 1000	A (0% ≤ substrate protein remaining % ≤80%)	–
